Where “and” joins values, the source holds several entries; their conditions need not be identical. Equal entries are not always repeated. Where two headings read alike, the source gives them in different places. One block for each compound: values may come before it.
Key:
[1] = test system: HIV; assay: Inhibition of HIV multiplication in cell culture, H9 cells (Koshida et al. method); format: cell-based; conditions: for inhibition at 1 µg/mL: Human immunodeficiency virus 1, H9, 1 μg/ml; for inhibition at 10 µg/mL: Human immunodeficiency virus 1, H9, 10 μg/ml; for inhibition at 0.1 µg/mL: Human immunodeficiency virus 1, H9, 0.1 μg/ml
Source text: The activity against human immunodeficiency virus (HIV) has been tested for the compounds listed and the resulting activities are shown in the Table below.
The data in the Table were gathered and tests performed as described by Koshida et el., "Inhibition of Human Immunodeficiency Virus in vitro by Combination of 3'-Azido-3'-Deoxythymidine and Foscarnet" in Antimicrob Agents and Chemotherapy, Vol 33 (1989) p. 778-780 (on H9 cells for compounds X-XII) and by De Clercq et el, Nucleosides and Nucleotides, Vol 8 (1989) p. 659-671 (on MT4 cells, literature data for compounds XIV-XVI).

[2] = test system: HIV; conditions: MT4 cells, literature data, cited from earlier work
[3] = test system: HIV (HTLV-IIIB); assay: Test I, effect of compounds on HIV in H9 cells (HIV antigen containing cells); format: cell-based; conditions: read-out: Concentration for 50% inhibition (IC50) of human immuno deficiency virus multiplication in cell culture
Method: Materials and methods: HIV infection of H9 cells
H9 cells, 10^5 cells per well on a 24 well plate, suspended in 2 ml RPMI-medium containing 10% fetal calf serum, 100 μg/ml penicillin, 10 μg/ml streptomycin sulfate and 2μg/ml polybrene are exposed to HIV (HTLV-IIIB) and different concentrations of the test compounds. The plates are incubated at 37° C. in 5% CO2 for 6-7 days. The contents in each well is then homogenized with a pipette and transferred to a centrifuge tube. After centrifugation for 10 min at 1500 rpm the supernatant is removed and the cell pellet is analyzed by fixing in methanol on glass plates. Human HIV positive serum diluted 1:80 or 1:160 is added and incubated for 30 min at 37° C. The plate is then washed with phosphate-buffered saline (PBS) containing Ca^2+ and Mg^2+. Sheep antihuman conjugate (FITC) is added and after a new incubation the plate is again washed with PBS. Contrast staining is done with Evans blue and after drying the frequency of HIV antigen containing cells is determined in a microscope.

[4] = Test II, cellular toxicity, F5000 cells; format: cell-based; conditions: human, read-out: % inhibition of cell multiplication
Method: (§1) F5000 cells, which are human embryo cells, 1×10^5 cells per plate, are incubated in Eagle's minimal essential medium, supplemented with Earle's salts, non-essential amino acids, 10% fetal calf serum, 10 mM hopes, 70 mg/l penicillin and 100 mg/l streptomycin, in absence or presence of test compounds. The number of cells per plate is determined after 48 h. Cells incubated in the absence of test compounds underwent one cell division cycle.

[5] = Test II, cellular toxicity, H9 cells; format: cell-based; conditions: human, read-out: % inhibition of cell multiplication
Method: H9 cells, 2×10^7 cells per plate, are incubated in […] medium containing 10% fetal calf serum, 70 mg/l penicillin, 100 mg/l streptomycin and 10 mM hepes, in absence or presence of test compounds. The number of cells per plate is determined after 48 h. Cells incubated in the absence of test compounds then underwent two cell division cycles.
as §1

[6] = Human immunodeficiency virus 1, 6-7 days

Compound: C#C[C@H]1C[C@H](n2cc(C)c(=O)[nH]c2=O)O[C@@H]1CO [Example XII, 1-[2,3-Dideoxy-3-C-ethynyl-β-D-erythro-pentofuranosyl]thymine]
inhibition at 1 µg/mL [1]: 18%
inhibition at 10 µg/mL [1]: 54%

Compound: O=c1[nH]c(=O)n([C@H]2C[C@H](F)[C@@H](CO)O2)cc1Cl [XVI]
% Inhibition of HIV multiplication ([2]; 0.04 μg/ml): 50%

IC50 [3, 6]: 500 nM
Compound: O=c1ccn([C@H]2C[C@H](F)[C@@H](CO)O2)c(=O)[nH]1 [VSA 417, 1-(3'-F-2',3'-dideoxy-β-D-ribofuranosyl)-uracil]
inhibition at 48 h, 100 µM [4]: 10%

Compound: O=c1[nH]c(=O)n([C@H]2C[C@H](F)[C@@H](CO)O2)cc1I [XV, 5-iodo-1-(3'-fluoro-2',3'-dideoxy-β-D-ribofuranosyl)uracil]
% Inhibition of HIV multiplication ([2]; 0.1 μg/ml): 50%

Compound: O=c1[nH]c(=O)n([C@H]2C[C@H](F)[C@@H](CO)O2)cc1Br [XIV, 5-bromo-1-(3'-fluoro-2',3'-dideoxy-β-D-ribofuranosyl)uracil]
% Inhibition of HIV multiplication ([2]; 0.1 μg/ml): 50%

IC50 [3, 6]: < 1000 nM
Compound: CCc1cn([C@H]2C[C@H](F)[C@@H](CO)O2)c(=O)[nH]c1=O [VSA 410, 1-(3'-F-2',3'-dideoxy-β-D-ribofuranosyl)-5-ethyl-uracil]
inhibition at 48 h, 100 µM ([5]; 100 μM): 25%
inhibition at 48 h, 100 µM [4]: 25%

Compound: CO[C@H]1[C@H](F)[C@@H](CO)O[C@H]1n1cc(C)c(=O)[nH]c1=O [Example X, 1-(3'-fluoro-2'-methoxy-2',3'-dideoxy-β-D-arabinofuranosyl)thymine]
% Inhibition of HIV multiplication ([1]; 10 μg/ml): 83% and 79%
inhibition at 0.1 µg/mL [1]: 58%
inhibition at 10 µg/mL [1]: 85%

IC50 [3, 6]: 1000 nM
Compound: CCCc1cn([C@H]2C[C@H](F)[C@@H](CO)O2)c(=O)[nH]c1=O [VSA 408, 1-(3'-F-2',3'-dideoxy-β-ribofuranosyl)-5-propyl-uracil]
inhibition at 48 h, 250 µM ([5]; 250 μM): 15%
inhibition at 48 h, 100 µM [4]: 0%

Compound: CO[C@H]1[C@H](N=[N+]=[N-])[C@@H](CO)O[C@H]1n1cc(C)c(=O)[nH]c1=O [Example XI, 1-(3'-azido-2'-methoxy-2',3'-dideoxy-β-D-arabinofuranosyl)thymine]
% Inhibition of HIV multiplication ([1]; 0.1 μg/ml): 32%
% Inhibition of HIV multiplication ([1]; 1 μg/ml): 38%
inhibition at 0.1 µg/mL [1]: 27%
inhibition at 1 µg/mL [1]: 21%

IC50 ([3]; 6-7 days): < 10 nM
Compound: CC(=O)OC[C@H]1O[C@@H](n2cc(C)c(=O)[nH]c2=O)C[C@@H]1F [VSB 423, 1-(5'-acetyl-3'-fluoro-2',3'-dideoxy-β-D-ribofuranosyl)-5-methyluracil]
